Measurements published in patent US10385034B2, “Flavonoid IL-17A inhibitors” (THE CLEVELAND CLINIC FOUNDATION, priority 2014, dated 2019).

How the values were obtained:
[1] = system: human mammary epithelial cells (HMEC); experiment: IL-17A-induced CXCL1 (Groα) production, ELISA; type: cell-based; settings: IL-17 100 ng/ml, 24 h
Excerpt: (§1) Reagents, cell culture and mice. Purified proteins of human IL-17A, human IL-17E (IL-25), human IL-17RA-Fc (extracellular domain 1-322 AA fused with Fc region of human IgG1 at the C-terminus), human IL-17RB-Fc (extracellular domain 1-289 AA fused with Fc region of human IgG1 at the C-terminus), human horseradish peroxidase (HRP)-conjugated IgG Fc secondary antibody were purchased from Sino Biological Inc. Human and mouse IL-17A and mouse IL-23 used for cell culture and animal injection were purchased from R&D Systems. Human mammary epithelial cells were maintained in Medium 171 plus mammary epithelial growth supplement (MEGS) purchased from Invitrogen, which contain bovine pituitary extract (BPE) (0.4% v/v), recombinant human insulin-like growth factor-I (1 μg/ml), hydrocortisone (0.5 μg/ml) and human epidermal growth factor (3 ng/ml). A549 cells were maintained in RPMI supplemented with 10% FCS and 100 U/ml penicillin and 100 μg/ml streptomycin. All mice were obtained from Jackson laboratory.
(§2) ELISA. Groα and IL-17A levels were assayed by ELISA kits (R&D systems) according to the manufacturer's instruction.

[2] = system: IL-17A-induced epidermal hyperplasia; experiment: Intradermal injection of IL-17A (skin epidermal hyperplasia); type: in vivo, mouse
Experimental: Intradermal injection of IL-17A. The ears of 8-week WT C57BL/6 female mice were injected intradermally with 20 μl PBS, either alone or containing 500 ng recombinant mouse IL-17A with or without A18 (30 μg per mouse). After 7 days after injection, the mice ears were fixed in 10% formalin in PBS and stained with hematoxylin and eosin (H&E). Epidermal thickness was quantified by Image J.
Real-time PCR. Total RNA was extracted from spinal cords and cultured astrocytes with TRIzol (Invitrogen) according to the manufacturer's instructions. All gene expression results are expressed as arbitrary units relative to expression of the gene encoding beta-actin.

[3] = system: HDM-induced allergic airway disease; experiment: House dust mite (HDM)-induced asthma; type: in vivo; settings: C57BL/6 mice, A18 30 μg per mouse i.p. daily
Experimental: Measurement of AHR. AHR was measured in mice in response to increasing doses of inhaled methacholine. Mice were anesthetized with i.p. pentobarbital sodium (60 mg/kg). After the intubation and the placement of a 19-gauge cannula through a tracheotomy incision, the cannula was affixed with a silk suture ligation. Mice were connected to a computer-controlled piston ventilator run at a rate of 150 breaths/min, a tidal volume of 0.2 ml, and a positive end-expiratory pressure of 2-3 cm H2O (Flexivent). Mice were then administered a muscle relaxant (pancuronium bromide, […]), and the lungs were expanded twice to total lung capacity at an amplitude pressure of 30 cm H2O. Each mouse was aerosolized with methacholine in saline at doses of 0 mg/ml, 12.5 mg/ml, 25 mg/ml, and 50 mg/ml, delivered over 10 s through an in-line nebulizer. Lung resistance (RL) was obtained through forced oscillation technique by FlexiVent 5.2 (Flexivent; Scireq) software. House dust mite (HDM)-induced asthma. WT C57BL/6 mice were sensitized intratracheally (i.t.) with HDM (Dermatophagoides farina, 100 μg per mouse, Greer Laboratories) on day 0 and subsequently challenged (i.t.) with HDM (100 μg per mouse) from day 7 for 5 days. […] All gene expression results are expressed as arbitrary units relative to expression of the gene encoding beta-actin.

[4] = target: T1, recombinant human IL-17RA ectodomain (Homo sapiens, UniProt Q96F46); experiment: Fluorescence binding measurement (fluorescence quenching); settings: fluorescence-based method, IL-17RA in solution, 1 uM
T1 construct: The recombinant human IL-17RA ectodomain was expressed in baculovirus-infected Sf-9 cells; made in house; host or cells: baculovirus-infected Sf-9 cells
Experimental: Fluorescence binding measurement. The recombinant human IL-17RA ectodomain was expressed in baculovirus-infected Sf-9 cells and purified as described previously. Liu et al., Nat Commun 4, 1888 (2013). The compound A18 or A0 was obtained from NCI. The purified IL-17RA protein (final concentration at 1 uM) was mixed with various concentrations of compound A0 in the solution consisting of 20 mM Tris, pH 7.5, 150 mM NaCl, and 5% DMSO in a 96-well black flat-bottom microplate (Greiner Bio-One). The reaction mixtures were incubated at room temperature at 120 rpm for 10 min, and fluorescence intensity was measured on a 2300 EnSpire Multimode Plate Reader (PerkinElmer) with excitation (265 nm) and emission (336 nm) wavelengths for A18 or with excitation (240 nm) and emission (337 nm) wavelengths for A0. The fluorescence signal (relative fluorescence intensity) was obtained by subtracting the background fluorescence of buffer and compound A0, and plotted as a function of the concentration of compound A0. The fluorescence quenching was observed as a consequence of the protein-ligand interaction at dose-dependent concentrations of compound A0, and the binding constant of compound A0 to IL-17RA was estimated by one-site total binding fit model (GraphPad Prism).

[5] = system: IL-17A-induced intraperineal neutrophilia; experiment: Peritoneal administration of IL-17A (neutrophilia); type: in vivo; settings: BALB/c mice, A18 30 μg per mouse i.p. co-injected with IL-17A 1 μg, 6 h
Experimental: Peritoneal administration of IL-17A. Eight-week WT BALB/cJ female mice were subjected to intraperitoneal injection (i.p.) of PBS, 1 μg of IL-17A with or without A18 (30 μg per mouse). The peritoneal cavity was lavaged with 5 ml ice-cold PBS at 6 h post treatment. Peritoneal cells were counted and quantified by differential cell counting.

[6] = system: HFD-induced AHR; experiment: High-fat-diet-induced airway hyperreactivity; type: in vivo; settings: A18 30 μg per mouse i.p., last 10 days of HFD
Experimental: High-fat-diet intervention. Starting at 4 weeks of age, WT C57BL/6 male mice were fed with 10 kcal % fat chow diet (CD) or a 60 kcal % HFD for 14 weeks. HFD+A18 group of mice were i.p. injected with A18 (30 μg per mouse) daily for 10 days before subjection to AHR measurement. Both CD (D12450B) or HFD (D12492) were obtained from Research Diets, Inc. Measurement of AHR. AHR was measured in mice in response to increasing doses of inhaled methacholine. Mice were anesthetized with i.p. pentobarbital sodium (60 mg/kg). After the intubation and the placement of a 19-gauge cannula through a tracheotomy incision, the cannula was affixed with a silk suture ligation. Mice were connected to a computer-controlled piston ventilator run at a rate of 150 breaths/min, a tidal volume of 0.2 ml, and a positive end-expiratory pressure of 2-3 cm H2O (Flexivent). Mice were then administered a muscle relaxant (pancuronium bromide, 800 mg/kg), and the lungs were expanded twice to total lung capacity at an amplitude pressure of 30 cm H2O. […] Lung resistance (RL) was obtained through forced oscillation technique by FlexiVent 5.2 (Flexivent; Scireq) software. Real-time PCR. […] All gene expression results are expressed as arbitrary units relative to expression of the gene encoding beta-actin.

[7] = system: A549 cells; experiment: IL-17A-induced CXCL1 (Groα) production, ELISA; type: cell-based, human; settings: A549, IL-17 100 ng/ml, 24 h
Excerpt: as §1, §2

[8] = system: IL-17F-induced gene expression; experiment: IL-17F-induced gene expression in epithelial cells; type: cell-based, human; settings: data not shown

T1 sequence (Q96F46 33-320 limits assumed): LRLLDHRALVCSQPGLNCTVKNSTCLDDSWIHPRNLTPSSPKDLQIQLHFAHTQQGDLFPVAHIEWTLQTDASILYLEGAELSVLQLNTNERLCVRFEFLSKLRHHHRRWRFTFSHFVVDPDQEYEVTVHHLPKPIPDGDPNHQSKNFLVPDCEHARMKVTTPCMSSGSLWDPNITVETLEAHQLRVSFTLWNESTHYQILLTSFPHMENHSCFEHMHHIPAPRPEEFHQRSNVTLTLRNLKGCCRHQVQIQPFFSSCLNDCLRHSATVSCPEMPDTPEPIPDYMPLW

Oc1cc(O)c2cc(O)c(-c3ccc(O)c(O)c3)[o+]c2c1.[Cl-] [A18, 2-(3,4-Dihydroxyphenyl)-3,5,7-trihydroxy-1-benzopyrylium chloride]
IL-17A-mediated CXCL1 production [1]: greatly inhibited
IL-17A-dependent epidermal hyperplasia ([2]; C57Bl/6 ears, IL-17A 500 ng with A18 30 μg per mouse intradermal, 6 consecutive days): greatly reduced
Levels of C-myc, Pled and Steap4 in IL-17A-treated ears ([2]; RT-PCR): attenuated
HDM-induced AHR [3]: reduced
HDM-induced inflammatory gene expression [3]: reduced
Kd [4]: ~5 µM
IL-17A-induced intraperineal neutrophilia [5]: greatly attenuated
HFD-induced AHR ([6]; C57Bl/6 mice): substantially attenuated
HFD-induced inflammatory gene expression in lung ([6]; C57Bl/6 mice): substantially attenuated
HFD-induced production of IL-17A in the lung ([6]; cultured lung cells): no impact
IL-17A-mediated CXCL1 production [7]: greatly inhibited
IL-17F-induced gene expression [8]: able to block
